Measurements reported in ChEMBL document CHEMBL3822392, “Design, synthesis and apoptosis inducing effect of novel (Z)-3-(3'-methoxy-4'-(2-amino-2-oxoethoxy)-benzylidene)indolin-2-ones as potential antitumour agents” (Eur J Med Chem, 2016).
Activity calls are given as the source filed them. The calls are words filed in the database; no cut-off is given here.

What was measured:
[1] = Cytotoxicity against human DU145 cells after 48 hrs by MTT assay; format: functional, cell-based; conditions: DU-145, 48 h
[2] = Cytotoxicity against human BT549 cells after 48 hrs by MTT assay; format: functional, cell-based; conditions: BT-549, 48 h
[3] = Cytotoxicity against human PC3 cells after 48 hrs by MTT assay; format: functional, cell-based; conditions: PC-3, 48 h
MDA-MB-231 = assay: cells; conditions: Homo sapiens, MDA-MB-231, 48 h
Description: Cytotoxicity against human MDA-MB-231 cells after 48 hrs by MTT assay

[4] = Cytotoxicity against human RWPE1 cells after 48 hrs by MTT assay; format: cell-based; conditions: RWPE-1, 48 h
[5] = Cell cycle arrest in human PC3 cells assessed as accumulation at G0/G1 phase at 2 uM after 24 hrs by propidium iodide staining-based flow cytometry (reference value: 71.7%); format: functional; conditions: PC-3
PC-3 [6] = assay: Induction of apoptosis in human PC3 cells assessed as early apoptotic cells at 2 uM after 24 hrs by Annexin V/FITC staining-based flow cytometric analysis (reference value: 5.1%); format: functional
[7] = Cell cycle arrest in human PC3 cells assessed as accumulation at S phase at 2 uM after 24 hrs by propidium iodide staining-based flow cytometry (reference value: 9.3%); format: functional; conditions: PC-3
[8] = Induction of apoptosis in human PC3 cells assessed as upregulation of Bax expression after 24 hrs by Western blot analysis; format: functional, cell-based; conditions: PC-3
[9] = Cell cycle arrest in human PC3 cells assessed as accumulation at S phase at 1 uM after 24 hrs by propidium iodide staining-based flow cytometry (reference value: 9.3%); format: functional; conditions: PC-3
[10] = Cell cycle arrest in human PC3 cells assessed as accumulation at S phase at 4 uM after 24 hrs by propidium iodide staining-based flow cytometry (reference value: 9.3%); format: functional; conditions: PC-3
[11] = Cell cycle arrest in human PC3 cells assessed as accumulation at G0/G1 phase at 4 uM after 24 hrs by propidium iodide staining-based flow cytometry (reference value: 71.7%); format: functional; conditions: PC-3
PC-3 [12] = assay: Induction of apoptosis in human PC3 cells assessed as necrotic cells at 2 uM after 24 hrs by Annexin V/FITC staining-based flow cytometric analysis (reference value: […]); format: functional
PC-3 [13] = assay: Induction of apoptosis in human PC3 cells assessed as chromatin condensation after 24 hrs by Hoechst […] staining-based confocal fluorescence microscopic analysis; format: functional, cell-based
[14] = Antimigratory activity in human PC3 cells at 1 uM after 24 hrs by wound healing assay (reference value: 43.4%); format: functional, PC-3
PC-3 [15] = assay: Antimigratory activity in human PC3 cells after 24 to 48 hrs by assay; format: functional, cell-based
[16] = Antimigratory activity in human PC3 cells at 4 uM after 24 hrs by wound healing assay (reference value: 43.4%); format: functional, PC-3
PC-3 [17] = assay: Increase in intracellular Ca2+ level in human PC3 cells after 24 hrs by Fura-2/AM staining-based fluorescence microscopic analysis; format: functional, cell-based
[18] = Cell cycle arrest in human PC3 cells assessed as accumulation at G2/M phase at 2 uM after 24 hrs by propidium iodide staining-based flow cytometry (reference value: 19.2%); format: functional; conditions: PC-3
PC-3 [19] = assay: Antimigratory activity in human PC3 cells at 1 to 2 uM after 48 hrs by wound healing assay; format: functional, cell-based
PC-3 [20] = assay: Induction of apoptosis in human PC3 cells assessed as necrotic cells at 1 uM after 24 hrs by Annexin V/FITC staining-based flow cytometric analysis (reference value: […]); format: functional
PC-3 [21] = assay: Induction of apoptosis in human PC3 cells assessed as live cells at 2 uM after 24 hrs by Annexin V/FITC staining-based flow cytometric analysis (reference value: 85.7%); format: functional
PC-3 [22] = assay: Induction of apoptosis in human PC3 cells assessed as late apoptotic cells at 4 uM after 24 hrs by Annexin V/FITC staining-based flow cytometric analysis (reference value: 4.3%); format: functional
PC-3 [23] = assay: Induction of apoptosis in human PC3 cells assessed as nuclear fragmentation after 24 hrs by Hoechst […] staining-based confocal fluorescence microscopic analysis; format: functional, cell-based
PC-3 [24] = assay: Disruption of mitochondrial membrane potential in human PC3 cells after 24 hrs by Rhodamine123 staining-based spectrofluorimetric analysis relative to control; format: functional, cell-based
PC-3 [25] = assay: Induction of apoptosis in human PC3 cells assessed as necrotic cells at 4 uM after 24 hrs by Annexin V/FITC staining-based flow cytometric analysis (reference value: […]); format: functional
PC-3 [26] = assay: Induction of apoptosis in human PC3 cells assessed as early apoptotic cells at 1 uM after 24 hrs by Annexin V/FITC staining-based flow cytometric analysis (reference value: 5.1%); format: functional
PC-3 [27] = assay: Cytotoxicity against human PC3 cells assessed as cell shrinkage at 1 to 4 uM after 48 hrs by phase contrast microscopic analysis relative to vehicle control; format: functional, cell-based
PC-3 [28] = assay: Induction of apoptosis in human PC3 cells after 24 hrs by Annexin V/FITC staining-based flow cytometric analysis; format: functional, cell-based
[29] = Cytotoxicity against human PC3 cells assessed as cell viability at 4 uM after 48 hrs by trypan blue assay; format: functional; conditions: PC-3, 48 h, read-out: Activity
PC-3 [30] = assay: Induction of apoptosis in human PC3 cells assessed as live cells at 4 uM after 24 hrs by Annexin V/FITC staining-based flow cytometric analysis (reference value: 85.7%); format: functional
PC-3 [31] = assay: Induction of apoptosis in human PC3 cells assessed as late apoptotic cells at 2 uM after 24 hrs by Annexin V/FITC staining-based flow cytometric analysis (reference value: 4.3%); format: functional
[32] = Cell cycle arrest in human PC3 cells assessed as accumulation at G0/G1 phase after 24 hrs by propidium iodide staining-based flow cytometry; format: functional; conditions: PC-3
[33] = Antimigratory activity in human PC3 cells at 2 uM after 24 hrs by wound healing assay (reference value: 43.4%); format: functional, PC-3
[34] = Cell cycle arrest in human PC3 cells assessed as accumulation at G0/G1 phase at 1 uM after 24 hrs by propidium iodide staining-based flow cytometry (reference value: 71.7%); format: functional; conditions: PC-3
[35] = Cell cycle arrest in human PC3 cells assessed as accumulation at G2/M phase at 1 uM after 24 hrs by propidium iodide staining-based flow cytometry (reference value: 19.2%); format: functional; conditions: PC-3
PC-3 [36] = assay: Induction of apoptosis in human PC3 cells assessed as live cells at 1 uM after 24 hrs by Annexin V/FITC staining-based flow cytometric analysis (reference value: 85.7%); format: functional
PC-3 [37] = assay: Induction of apoptosis in human PC3 cells assessed as downregulation of Bcl2 expression after 24 hrs by Western blot analysis; format: functional, cell-based
PC-3 [38] = assay: Antimigratory activity in human PC3 cells assessed as disruption of F-actin formation around nucleus at 1 to 4 uM after 12 hrs by rhodamine phalloidin/Hoechst […] staining-based confocal microscopic analysis; format: functional, cell-based
PC-3 [39] = assay: Induction of apoptosis in human PC3 cells assessed as caspase 3 activation after 24 hrs by Western blot analysis; format: functional, cell-based
[40] = Disruption of mitochondrial membrane potential in human PC3 cells at 1 to 4 uM after 24 hrs by Rhodamine123 staining-based spectrofluorimetric analysis relative to control; format: functional, PC-3
PC-3 [41] = assay: Cytotoxicity against human PC3 cells assessed as cell detachment at 1 to 4 uM after 48 hrs by phase contrast microscopic analysis relative to vehicle control; format: functional, cell-based
[42] = Cell cycle arrest in human PC3 cells assessed as accumulation at G2/M phase at 4 uM after 24 hrs by propidium iodide staining-based flow cytometry (reference value: 19.2%); format: functional; conditions: PC-3
PC-3 [43] = assay: Induction of apoptosis in human PC3 cells assessed as late apoptotic cells at 1 uM after 24 hrs by Annexin V/FITC staining-based flow cytometric analysis (reference value: 4.3%); format: functional
PC-3 [44] = assay: Induction of apoptosis in human PC3 cells assessed as early apoptotic cells at 4 uM after 24 hrs by Annexin V/FITC staining-based flow cytometric analysis (reference value: 5.1%); format: functional
[45] = Cytotoxicity against human PC3 cells assessed as cell viability at 2 uM after 48 hrs by trypan blue assay; format: functional; conditions: PC-3, 48 h, read-out: Activity

SMILES: COc1cc(/C=C2\C(=O)Nc3ccccc32)ccc1OCC(=O)N1CCCC1
- IC50 [1]: > 20 µM
- IC50 [2]: > 20 µM
- IC50 [3]: > 20 µM
- IC50 (MDA-MB-231): > 20 µM

SMILES: COc1cc(/C=C2\C(=O)Nc3ccccc32)ccc1OCC(=O)N1CCCCC1
- IC50 [1]: 6.63 µM
- IC50 [4]: 78.1 µM
- IC50 [2]: > 20 µM
- IC50 [3]: 6.97 µM
- IC50 (MDA-MB-231): 19.3 µM

SMILES: COc1cc(/C=C2\C(=O)Nc3ccccc32)ccc1OCC(=O)N1CCOCC1
- IC50 [1]: 5.75 µM
- IC50 [4]: 81.8 µM
- IC50 [2]: 8.87 µM
- IC50 [3]: 5.97 µM
- IC50 (MDA-MB-231): 9.78 µM

SMILES: COc1cc(/C=C2\C(=O)Nc3ccccc32)ccc1OCC(=O)N1CCc2ccccc21
- Activity [5]: 20.8%
- Activity (PC-3 [6]): 17.6%
- Activity [7]: 27.6%
- Activity [8]: Dose-dependent effect
- Activity [9]: 18.5%
- Activity [10]: 24.2%
- Activity [11]: 19.4%
- Activity (PC-3 [12]): 1.3%
- Activity (PC-3 [13]): Dose-dependent effect
- Activity [14]: 37.3%
- Activity (PC-3 [15]): Dose-dependent effect
- IC50 [1]: 1.94 µM
- IC50 [4]: > 100 µM
- Activity [16]: 7.3%
- Activity (PC-3 [17]): Dose-dependent effect
- Activity [18]: 49.8%
- Activity (PC-3 [19]): Active
- Activity (PC-3 [20]): 0.4%
- Activity (PC-3 [21]): 70.9%
- Activity (PC-3 [22]): 22.4%
- Activity (PC-3 [23]): Dose-dependent effect
- Activity (PC-3 [24]): Dose-dependent effect
- Activity (PC-3 [25]): 4.4%
- Activity (PC-3 [26]): 13.6%
- Activity (PC-3 [27]): Active
- IC50 [2]: 7.17 µM
- Activity (PC-3 [28]): Dose-dependent effect
- viability at 4 µM [29]: 45%
- Activity (PC-3 [30]): 57.4%
- Activity (PC-3 [31]): 10.2%
- Activity [32]: Dose-dependent effect
- Activity [33]: 29.4%
- Activity [34]: 39.1%
- Activity [35]: 41.6%
- Activity (PC-3 [36]): 77.7%
- Activity (PC-3 [37]): Dose-dependent effect
- Activity (PC-3 [38]): Active
- Activity (PC-3 [39]): Dose-dependent effect
- Activity [40]: 19%
- IC50 [3]: 1.89 µM
- Activity (PC-3 [41]): Active
- Activity [42]: 55.7%
- Activity (PC-3 [43]): 8.3%
- Activity (PC-3 [44]): 15.8%
- IC50 (MDA-MB-231): 6.35 µM
- viability at 2 µM [45]: 53%

SMILES: COc1cc(/C=C2\C(=O)Nc3ccccc32)ccc1OCC(=O)N1CC(C)OC(C)C1 (centres undefined)
- IC50 [1]: > 20 µM
- IC50 [2]: > 20 µM
- IC50 [3]: > 20 µM
- IC50 (MDA-MB-231): > 20 µM

SMILES: CCN(CC)CCNC(=O)c1c(C)[nH]c(/C=C2\C(=O)Nc3ccc(F)cc32)c1C [SUNITINIB]
- IC50 [1]: 16.4 µM
- IC50 [4]: 23 µM
- IC50 [2]: 15.5 µM
- IC50 [3]: 19.6 µM
- IC50 (MDA-MB-231): 7.4 µM
